# Target: T1, CFTR (Homo sapiens, UniProt P13569)
# T1 construct: endogenous in cells; host or cells: T84 human colonic cells (ECACC)
# Experiment: T84 assay (FLIPR membrane potential dye, forskolin/IBMX-stimulated CFTR channel activity)
# Assay type: cell-based
# Settings: imidazole and triazole-containing compounds (Tables 13, 14, 14′), read-out: IC50 (μM) (T84 assay)
# Procedure, shortened: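 Fluorescence from a membrane potential dye in T84 monolayers (HBSS with 10 mM Hepes) is followed each second for 150 s. Cells are exposed to test compound during the 45 min dye loading, then challenged with forskolin (10 μM) and IBMX (100 μM) to open CFTR. Inhibitors suppress the depolarization-driven fluorescence increase.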
# T1 sequence (P13569 whole entry): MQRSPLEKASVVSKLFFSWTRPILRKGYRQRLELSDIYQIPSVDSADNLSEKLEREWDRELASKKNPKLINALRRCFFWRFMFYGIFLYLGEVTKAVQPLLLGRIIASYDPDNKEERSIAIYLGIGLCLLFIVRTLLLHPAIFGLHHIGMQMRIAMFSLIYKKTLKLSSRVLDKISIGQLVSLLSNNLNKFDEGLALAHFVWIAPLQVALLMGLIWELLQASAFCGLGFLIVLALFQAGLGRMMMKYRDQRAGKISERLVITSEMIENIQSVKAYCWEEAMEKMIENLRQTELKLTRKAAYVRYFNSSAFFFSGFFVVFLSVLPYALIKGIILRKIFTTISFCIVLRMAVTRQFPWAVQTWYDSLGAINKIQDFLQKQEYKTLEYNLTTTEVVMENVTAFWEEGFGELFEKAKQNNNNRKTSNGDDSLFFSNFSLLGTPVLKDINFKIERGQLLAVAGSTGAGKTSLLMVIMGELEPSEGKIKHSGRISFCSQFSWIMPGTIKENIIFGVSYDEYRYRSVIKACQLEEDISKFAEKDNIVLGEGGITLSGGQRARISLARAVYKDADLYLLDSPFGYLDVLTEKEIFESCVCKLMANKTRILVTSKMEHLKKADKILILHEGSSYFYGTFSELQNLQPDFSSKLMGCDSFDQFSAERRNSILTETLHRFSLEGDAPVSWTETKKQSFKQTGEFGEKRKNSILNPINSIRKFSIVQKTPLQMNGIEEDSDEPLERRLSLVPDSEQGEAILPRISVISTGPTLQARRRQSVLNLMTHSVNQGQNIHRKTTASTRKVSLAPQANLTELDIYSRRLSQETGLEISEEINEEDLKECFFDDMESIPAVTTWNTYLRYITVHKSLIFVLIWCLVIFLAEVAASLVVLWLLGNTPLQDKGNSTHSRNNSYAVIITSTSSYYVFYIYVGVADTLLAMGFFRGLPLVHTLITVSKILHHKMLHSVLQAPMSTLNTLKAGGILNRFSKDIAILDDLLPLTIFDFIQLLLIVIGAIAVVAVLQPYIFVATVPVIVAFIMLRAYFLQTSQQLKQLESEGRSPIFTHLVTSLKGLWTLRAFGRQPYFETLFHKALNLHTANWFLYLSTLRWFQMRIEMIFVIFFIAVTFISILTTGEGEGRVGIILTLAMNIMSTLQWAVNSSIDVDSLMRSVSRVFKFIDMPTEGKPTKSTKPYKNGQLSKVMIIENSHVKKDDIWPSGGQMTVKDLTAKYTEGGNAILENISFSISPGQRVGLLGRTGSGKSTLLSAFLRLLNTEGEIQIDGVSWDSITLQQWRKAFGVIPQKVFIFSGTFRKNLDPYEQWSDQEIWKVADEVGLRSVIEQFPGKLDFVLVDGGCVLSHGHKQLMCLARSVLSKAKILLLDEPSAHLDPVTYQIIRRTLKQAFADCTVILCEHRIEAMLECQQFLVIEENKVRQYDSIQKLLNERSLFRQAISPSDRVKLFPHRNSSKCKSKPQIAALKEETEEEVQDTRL
row,Compound,IC50
1,"O=C(NCc1ccc(-c2ccc(C(F)(F)F)cn2)cc1)c1ncn(-c2cc(Cl)c(O)c(Cl)c2)n1 [39i, 1-(3,5-dichloro-4-hydroxyphenyl)-N-(4-(5-(trifluoromethyl)pyridin-2-yl)benzyl)-1H-1,2,4-triazole-3-carboxamide]",2.51 µM
2,"CC(NC(=O)c1ncn(-c2cc(Cl)c(O)c(Cl)c2)n1)c1ccc(Br)cc1 (stereo not drawn) [32i, N-(1-(4-bromophenyl)ethyl)-1-(3,5-dichloro-4-hydroxyphenyl)-1H-1,2,4-triazole-3-carboxamide]",10.3 µM
3,CN(C(=O)c1ncn(-c2cc(Cl)c(O)c(Cl)c2)n1)c1ccc(OC(F)(F)F)cc1 [21i],15.7 µM
4,"O=C(NCc1ccc(F)c(F)c1)c1ncn(-c2cc(Cl)c(O)c(Cl)c2)n1 [42i, 1-(3,5-dichloro-4-hydroxyphenyl)-N-(3,4-difluorobenzyl)-1H-1,2,4-triazole-3-carboxamide]",15.9 µM
5,"O=C(NCc1cc(F)c(F)c(F)c1)c1ncn(-c2cc(Cl)c(O)c(Cl)c2)n1 [43i, 1-(3,5-dichloro-4-hydroxyphenyl)-N-(3,4,5-trifluorobenzyl)-1H-1,2,4-triazole-3-carboxamide]",13.3 µM

# Other lines, results leading:
row,IC50,Compound
1,12.5 µM,"COCCOCCOCCOCCOCCOCCOCCOCCON(Cc1ccc(Oc2ccccc2)cc1)C(=O)c1ncn(-c2cc(Cl)c(O)c(Cl)c2)n1 [121i, N-(2,5,8,11,14,17,20,23-octaoxapentacosan-25-yloxy)-1-(3,5-dichloro-4-hydroxyphenyl)-N-(4-phenoxybenzyl)-1H-1,2,4-triazole-3-carboxamide]"
2,0.76 µM,"C=CCN(Cc1ccc(C(C)C)cc1)C(=O)c1ncn(-c2cc(Cl)c(O)c(Cl)c2)n1 [101i, N-allyl-1-(3,5-dichloro-4-hydroxyphenyl)-N-(4-isopropylbenzyl)-1H-1,2,4-triazole-3-carboxamide]"
3,9.17 µM,"COCCOCCOCCOCCN(Cc1ccc(Cl)c(Cl)c1)C(=O)c1ncn(-c2cc(Cl)c(O)c(Cl)c2)n1 [111i, 1-(3,5-dichloro-4-hydroxyphenyl)-N-(3,4-dichlorobenzyl)-N-(2,5,8,11-tetraoxatridecan-13-yl)-1H-1,2,4-triazole-3-carboxamide]"
4,17.3 µM,"COCCOCCOCCOCCOCCN(Cc1ccc(C(C)(C)C)cc1)C(=O)c1ncn(-c2cc(Cl)c(O)c(Cl)c2)n1 [118i, N-(4-tert-butylbenzyl)-1-(3,5-dichloro-4-hydroxyphenyl)-N-(2,5,8,11,14-pentaoxahexadecan-16-yl)-1H-1,2,4-triazole-3-carboxamide]"

# Same assay, conditions: isoxazole-containing compounds (Table 10, 10′, 11, 11′), read-out: IC50
row,IC50,Compound
1,8.96 µM,"O=C(c1cc(-c2cc(Br)c(O)c(Br)c2)on1)N1CCC(Cc2ccccc2)CC1 [9g, (4-Benzylpiperidin-1-yl)(5-(3,5-dibromo-4-hydroxyphenyl)isoxazol-3-yl)methanone]"

# Same assay, conditions: oxadiazole-containing compounds (a series), average of at least 2 runs unless annotated n = 1, read-out: IC50
row,Compound,IC50
1,"C=CCN(Cc1cccc(C(F)(F)F)c1)C(=O)c1nc(-c2cc(Br)c(O)c(Br)c2)no1 [59a, N-allyl-3-(3,5-dibromo-4-hydroxyphenyl)-N-(3-(trifluoromethyl)benzyl)-1,2,4-oxadiazole-5-carboxamide]",3.35 µM
2,"O=C(NCc1ccc(Oc2ccccc2)cc1)c1nc(-c2cc(Cl)c(O)c(Cl)c2)no1 [7a, 3-(3,5-dichloro-4-hydroxyphenyl)-N-(4-phenoxybenzyl)-1,2,4-oxadiazole-5-carboxamide]",5.22 µM
3,"CC(C)(C)C(=O)N1CCN(C(=O)c2nc(-c3cc(Br)c(O)c(Br)c3)no2)CC1 [93a, 1-(4-(3-(3,5-dibromo-4-hydroxyphenyl)-1,2,4-oxadiazole-5-carbonyl)piperazin-1-yl)-2,2-dimethylpropan-1-one]",5.8 µM
4,"O=C(NCc1ccccc1C(F)(F)F)c1noc(-c2cc(Cl)c(O)c(Cl)c2)n1 [88a, 5-(3,5-dichloro-4-hydroxyphenyl)-N-(2-(trifluoromethyl)benzyl)-1,2,4-oxadiazole-3-carboxamide]",6.2 µM
5,"O=C(c1noc(-c2cc(Br)c(O)c(Br)c2)n1)N1CCC(Cc2ccccc2)CC1 [66a, (4-benzylpiperidin-1-yl)(5-(3,5-dibromo-4-hydroxyphenyl)-1,2,4-oxadiazol-3-yl)methanone]",11.7 µM
6,"CN(Cc1ccc(Cl)cc1)C(=O)c1noc(-c2cc(Cl)c(O)c(Cl)c2)n1 [84a, N-(4-chlorobenzyl)-5-(3,5-dichloro-4-hydroxyphenyl)-N-methyl-1,2,4-oxadiazole-3-carboxamide]",4.03 µM
7,"O=C(NCc1cccc(OC(F)(F)F)c1)c1nc(-c2cc(Br)c(O)c(Br)c2)no1 [12a, 3-(3,5-dibromo-4-hydroxyphenyl)-N-(3-(trifluoromethoxy)benzyl)-1,2,4-oxadiazole-5-carboxamide]",7.89 µM
8,"CCN(Cc1cccc(C(F)(F)F)c1)C(=O)c1nc(-c2cc(Br)c(O)c(Br)c2)no1 [60a, 3-(3,5-Dibromo-4-hydroxyphenyl)-N-ethyl-N-(3-(trifluormethyl)benzyl)-1,2,4-oxadiazole-5-carboxamide]",12.6 µM
9,"O=C(c1nc(-c2cc(Br)c(O)c(Br)c2)no1)N1CCN(c2ccccc2)CC1 [16a, (3-(3,5-dibromo-4-hydroxyphenyl)-1,2,4-oxadiazol-5-yl)(4-phenylpiperazin-1-yl)methanone]",9.13 µM

# Further lines, results first:
row,IC50,Compound
1,6.76 µM,"O=C(NCc1cccc(-c2ccccc2)c1)c1nc(-c2cc(Cl)c(O)c(Cl)c2)no1 [125a, N-(biphenyl-3-ylmethyl)-3-(3,5-dichloro-4-hydroxyphenyl)-1,2,4-oxadiazole-5-carboxamide]"
2,2.79 µM,"CCCN(Cc1cccc(C(F)(F)F)c1)C(=O)c1nc(-c2cc(Cl)c(O)c(Cl)c2)no1 [108a, 3-(3,5-dichloro-4-hydroxyphenyl)-N-propyl-N-(3-(trifluoromethyl)benzyl)-1,2,4-oxadiazole-5-carboxamide]"
3,8.26 µM,"CN(Cc1ccc(C(C)(C)C)cc1)C(=O)c1nc(-c2cc(Cl)c(O)c(Cl)c2)no1 [148a, N-(4-tert-butylbenzyl)-3-(3,5-dichloro-4-hydroxyphenyl)-N-methyl-1,2,4-oxadiazole-5-carboxamide]"
4,9.64 µM,"O=C(NCc1c(F)cccc1F)c1noc(-c2cc(Cl)c(O)c(Cl)c2)n1 [103a, 5-(3,5-dichloro-4-hydroxyphenyl)-N-(2,6-difluorobenzyl)-1,2,4-oxadiazole-3-carboxamide]"
5,5.66 µM,"CN(Cc1ccc(-c2ccccn2)cc1)C(=O)c1nc(-c2cc(Cl)c(O)c(Cl)c2)no1 [186a, 3-(3,5-dichloro-4-hydroxyphenyl)-N-methyl-N-(4-(pyridin-2-yl)benzyl)-1,2,4-oxadiazole-5-carboxamide]"
6,6.78 µM,"CN(Cc1cccc(-c2ccncc2)c1)C(=O)c1nc(-c2cc(Cl)c(O)c(Cl)c2)no1 [175a, 3-(3,5-dichloro-4-hydroxyphenyl)-N-methyl-N-(3-(pyridin-4-yl)benzyl)-1,2,4-oxadiazole-5-carboxamide]"
7,5.15 µM,"CC(NC(=O)c1nc(-c2cc(Cl)c(O)c(Cl)c2)no1)c1ccc(Br)cc1 (stereo not drawn) [143a, N-(1-(4-bromophenyl)ethyl)-3-(3,5-dichloro-4-hydroxyphenyl)-1,2,4-oxadiazole-5-carboxamide]"
8,16.1 µM,"O=C(NCc1ccc(F)cc1F)c1nc(-c2cc(Cl)c(O)c(Cl)c2)no1 [132a, 3-(3,5-dichloro-4-hydroxyphenyl)-N-(2,4-difluorobenzyl)-1,2,4-oxadiazole-5-carboxamide]"
9,13.6 µM,"CCOc1ccc(Oc2ccc(CNC(=O)c3nc(-c4cc(Cl)c(O)c(Cl)c4)no3)cc2)cc1Cl [184a, N-(4-(3-chloro-4-ethoxyphenoxy)benzyl)-3-(3,5-dichloro-4-hydroxyphenyl)-1,2,4-oxadiazole-5-carboxamide]"
10,5.31 µM,"C#CCN(Cc1cccc(C(F)(F)F)c1)C(=O)c1nc(-c2cc(Cl)c(O)c(Cl)c2)no1 [109a, 3-(3,5-dichloro-4-hydroxyphenyl)-N-(prop-2-ynyl)-N-(3-(trifluoromethyl)benzyl)-1,2,4-oxadiazole-5-carboxamide]"
11,2.95 µM,"C=CCN(Cc1cccc(OC(F)(F)F)c1)C(=O)c1nc(-c2cc(Cl)c(O)c(Cl)c2)no1 [169a, N-allyl-3-(3,5-dichloro-4-hydroxyphenyl)-N-(3-(trifluoromethoxy)benzyl)-1,2,4-oxadiazole-5-carboxamide]"
12,13.2 µM,"O=C(NCc1ccc(Oc2ccc(F)c(C(F)(F)F)c2)cc1)c1nc(-c2cc(Cl)c(O)c(Cl)c2)no1 [200a, 3-(3,5-Dichloro-4-hydroxyphenyl)-N-(4-(4-fluoro-3-(trifluoromethyl)phenoxy)benzyl)-1,2,4-oxadiazole-5-carboxamide]"
13,8.92 µM,"COc1ccc(Oc2ccc(CNC(=O)c3nc(-c4cc(Cl)c(O)c(Cl)c4)no3)cc2)cc1Cl [195a, N-(4-(3-chloro-4-methoxyphenoxy)benzyl)-3-(3,5-dichloro-4-hydroxyphenyl)-1,2,4-oxadiazole-5-carboxamide]"
14,2.22 µM,"O=C(NCc1cc(C(F)(F)F)ccc1F)c1noc(-c2cc(Cl)c(O)c(Cl)c2)n1 [155a, 5-(3,5-dichloro-4-hydroxyphenyl)-N-(2-fluoro-5-(trifluoromethyl)benzyl)-1,2,4-oxadiazole-3-carboxamide]"

# Same assay, conditions: thiadiazole-containing compounds (Table 12), read-out: IC50
row,IC50,Compound
1,20.8 µM,"Oc1c(Cl)cc(-c2nnc(Oc3ccc(Oc4ccccc4)cc3)s2)cc1Cl [10h, 2,6-dichloro-4-(5-(4-phenoxyphenoxy)-1,3,4-thiadiazol-2-yl)phenol]"
2,5.65 µM,"Oc1c(Cl)cc(-c2nnc(COc3ccc(F)cc3Cl)s2)cc1Cl [2h, 2,6-dichloro-4(5-((2-chloro-4-fluorophenoxy)methyl)-1,3,4-thiadiazol-2-yl)phenol]"

# Same assay, conditions: triazole-containing compounds (c series), average of at least 2 runs unless annotated n = 1, read-out: IC50
row,IC50,Compound
1,24.1 µM,"CN(Cc1cccc(C(F)(F)F)c1)C(=O)c1n[nH]c(-c2cc(Cl)c(O)c(Cl)c2)n1 [90c, 5-(3,5-dichloro-4-hydroxyphenyl)-N-methyl-N-(3-(trifluoromethyl)benzyl)-1H-1,2,4-triazole-3-carboxamide]"

# Reference: patent US20100144733A1, “Compounds, compositions and methods comprising heteroaromatic derivatives” (Institute for OneWorld Health, priority 2008, published 2010)
